Assays:
[1] = molecular target: Adrenergic α1B (Rattus norvegicus, UniProt P15823); assay: Eurofins Hit Profiling Screen; type: binding; details: 10 μmol/L
[2] = system: CCl4-induced liver fibrosis; assay: CCl4-induced liver fibrosis; type: in vivo, Sprague Dawley rats
Method: Pellet then underwent acid hydrolysis in 6 mol/L HCl at 100°C for 24 hours. Hydroxyproline and crosslinks were extracted from the hydrolysate using an automated solid phase extraction system (Gilson […] system). After extraction and drying, hydroxyproline and crosslinks were analysed by UHPLC-ESI-MS/MS on a Thermo Dionex UHPLC and TSQ Endura triple quad mass spectrometer. Total protein was quantified in the samples using a commercially available kit (QuickZyme Biosciences, Leiden, The Netherlands). For detailed procedures, see supporting information. The study was performed by Pharmalegacy with approval from local ethics committee. […] Animals were killed 48 hours after the last CCl4 administration. […] Alanine aminotransferase (ALT) and aspartate aminotransferase (AST) levels were assessed in the plasma. One lobe of the liver tissue was fixed in 10% formalin, stained for Sirius red and the percentage coverage area was measured. The remainder of the liver was snap frozen and used for protein, hydroxyproline and crosslink analysis.

[3] = molecular target: Adenosine A1 (Homo sapiens, UniProt P30542); assay: Eurofins Hit Profiling Screen; type: binding; details: 10 μmol/L
Chain of Adenosine A1 (P30542 whole entry): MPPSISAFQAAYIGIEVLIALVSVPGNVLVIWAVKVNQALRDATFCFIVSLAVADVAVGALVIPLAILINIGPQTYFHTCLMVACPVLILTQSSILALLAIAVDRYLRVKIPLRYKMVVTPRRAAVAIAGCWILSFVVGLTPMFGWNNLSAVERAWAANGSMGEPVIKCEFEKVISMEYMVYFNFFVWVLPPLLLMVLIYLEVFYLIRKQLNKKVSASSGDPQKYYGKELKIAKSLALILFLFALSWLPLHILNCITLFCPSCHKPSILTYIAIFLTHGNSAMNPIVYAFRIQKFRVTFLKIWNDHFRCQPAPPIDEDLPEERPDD

[4] = molecular target: Muscarinic M3 (Homo sapiens, UniProt P20309); assay: Eurofins Hit Profiling Screen; type: binding; details: 10 μmol/L
Chain of Muscarinic M3 (P20309 whole entry): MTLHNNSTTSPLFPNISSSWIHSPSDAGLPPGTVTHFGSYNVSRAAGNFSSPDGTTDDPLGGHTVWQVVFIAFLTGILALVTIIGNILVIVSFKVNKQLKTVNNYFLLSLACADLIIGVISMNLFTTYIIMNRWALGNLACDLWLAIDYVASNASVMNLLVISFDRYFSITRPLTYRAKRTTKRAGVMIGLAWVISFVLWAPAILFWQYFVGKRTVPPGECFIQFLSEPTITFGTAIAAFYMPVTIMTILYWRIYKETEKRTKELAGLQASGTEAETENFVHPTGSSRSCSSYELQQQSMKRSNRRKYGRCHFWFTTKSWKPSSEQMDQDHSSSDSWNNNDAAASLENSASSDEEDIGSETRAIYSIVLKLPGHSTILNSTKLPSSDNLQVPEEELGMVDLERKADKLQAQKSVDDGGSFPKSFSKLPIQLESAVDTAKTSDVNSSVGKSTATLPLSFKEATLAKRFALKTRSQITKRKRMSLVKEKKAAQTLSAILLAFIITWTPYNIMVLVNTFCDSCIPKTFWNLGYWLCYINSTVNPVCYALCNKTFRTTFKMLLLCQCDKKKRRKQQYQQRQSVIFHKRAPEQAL

[5] = system: Imidazoline I2, Central; assay: Eurofins Hit Profiling Screen; type: binding; details: 10 μmol/L

Chain of Adrenergic α1B (P15823 whole entry): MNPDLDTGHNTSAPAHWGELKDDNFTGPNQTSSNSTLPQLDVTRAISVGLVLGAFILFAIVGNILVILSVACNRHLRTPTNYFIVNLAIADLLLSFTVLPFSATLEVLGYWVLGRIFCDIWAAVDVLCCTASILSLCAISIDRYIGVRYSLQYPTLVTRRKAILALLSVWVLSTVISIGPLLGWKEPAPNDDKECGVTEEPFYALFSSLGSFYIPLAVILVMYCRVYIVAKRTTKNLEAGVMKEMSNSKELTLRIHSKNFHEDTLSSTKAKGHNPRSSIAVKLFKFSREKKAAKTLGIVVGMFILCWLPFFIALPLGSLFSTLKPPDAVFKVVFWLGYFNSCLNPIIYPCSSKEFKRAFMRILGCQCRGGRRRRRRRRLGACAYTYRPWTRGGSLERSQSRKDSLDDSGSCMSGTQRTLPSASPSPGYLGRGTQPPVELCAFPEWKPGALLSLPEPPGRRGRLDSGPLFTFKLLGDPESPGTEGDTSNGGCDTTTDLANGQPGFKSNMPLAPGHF

Cc1c(-c2cccc(S(=O)(=O)N(C)C)c2)c2ncccc2n1C/C(F)=C/CN.Cl.Cl [PXS-5153A]
% inhibition [1]: 6% | mature crosslink formation (PYD + DPD) [2]: reduced | reduction of HYP content ([2]; all dosing regimens): > 30% | DHLNL formation ([2]; all groups with therapeutic treatment): significant reduction | PYD ([2]; all groups, only high dose q.d. statistically significant): different degrees of reduction | reduction of collagen accumulation (Picrosirius red) ([2]; both of the daily dosing groups): up to 51% | DHLNL/HYP ratio increase ([2]; crosslink normalized relative to hydroxyproline content): reversed | DPD crosslinks ([2]; high dose q.d. treatment): significantly reduced | liver injury, ALT and AST ([2]; high dose q.d. treatment compared with the CCl4 treated animals): significantly dampened | immature crosslink formation (DHLNL + HLNL) ([2]; therapeutic treatment, compared with the CCl4 treated animals): substantially reduced | % inhibition [3]: 9% | % inhibition [4]: 9% | % inhibition [5]: 57%
